The text below walks through data of US20140243302A1, “BRIDGED BICYCLIC COMPOUNDS FOR THE TREATMENT OF BACTERIAL INFECTIONS” (priority 2011, published 2014).

Each structure is given as a SMILES string. Converted amounts (≈) assume the structure as drawn.

The assay concerns Staphylococcus aureus Smith. Put plainly: MIC assay, modified agar dilution (CLSI), S. aureus Smith. The assay is classed as cell-based. Conditions: Staphylococcus aureus, agar dilution, 35° C., 16-20 hr; lowest concentration that completely inhibited growth; read-out: S_aureus_Smith_WT_MIC. The method, boiled down:
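Strains were spotted at about 1×10^4 CFU onto compound-containing Mueller Hinton agar (two-fold series, 128-0.001 μg/mL), horse blood 5% added for pneumococcus and enterococcus. MIC read after 16-20 hr at 35 °C, following a modified CLSI agar dilution method.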
(In general: Agar dilution tests growth on a series of plates holding different concentrations.)
As to `Cl.O=C1COc2ccc(CNC34CCC(C(O)Cc5c(F)cnc6ccc(OCCO)nc56)(CC3)OC4)nc2N1` (centres unmarked) [Example 171, 6-((1-(2-(3-Fluoro-6-(2-hydroxyethoxy)-1,5-naphthyridin-4-yl)-1-hydroxyethyl)-2-oxabicyclo[2.2.2]octan-4-ylamino)methyl)-2H-pyrido[3,2-b][1,4]oxazin-3(4H)-one Hydrochloride], the MIC was 0.125 µg/mL.

`COc1ccc2ncc(F)c(CC(O)C34CCC(NCc5ccc6c(c5)OCCO6)(CC3)CO4)c2n1` (centres unmarked) [Example 172, 1-{4-[(2,3-Dihydro-1,4-benzodioxin-6-ylmethyl)amino]-2-oxabicyclo[2.2.2]oct-1-yl}-2-(3-fluoro-6-methoxy-1,5-naphthyridin-4-yl)ethanol]: the MIC stood at 0.031 µg/mL (≈ 0.0626 µM). On to `COc1ccc2ncc(F)c(CC(O)C34CCC(NC(=O)c5ccc(C)c(F)c5)(CC3)CO4)c2n1` (centres unmarked) [Example 173, 3-Fluoro-N-{1-[2-(3-fluoro-6-methoxy-1,5-naphthyridin-4-yl)-1-hydroxyethyl]-2-oxabicyclo[2.2.2]oct-4-yl}-4-methylbenzamide], for which the MIC came out at 0.125 µg/mL (≈ 0.259 µM). Consider `COc1nc2c(CCC34CCC(NCc5ccc6c(n5)NC(=O)CO6)(CC3)CO4)c(F)cnc2cc1F` [Example 174, 6-[({1-[2-(3,7-Difluoro-6-methoxy-1,5-naphthyridin-4-yl)ethyl]-2-oxabicyclo[2.2.2]oct-4-yl}amino)methyl]-2H-pyrido[3,2-b][1,4]oxazin-3(4H)-one], for which the MIC came out at 0.031 µg/mL (≈ 0.0606 µM). Regarding `CC(C)(O)CCOc1ccc2ncc(F)c(CCC34CCC(NCc5ccc6c(n5)NC(=O)CO6)(CC3)CO4)c2n1` [Example 175, 6-{[(1-{2-[3-Fluoro-6-(3-hydroxy-3-methylbutoxy)-1,5-naphthyridin-4-yl]ethyl}-2-oxabicyclo[2.2.2]oct-4-yl)amino]methyl}-2H-pyrido[3,2-b][1,4]oxazin-3(4H)-one], the MIC was 1 µg/mL (≈ 1.77 µM). As for `COc1ccc2ncc(F)c(CCC34CCC(N(C)Cc5ccc6c(n5)NC(=O)CO6)(CC3)CO4)c2n1` [Example 176, 6-{[{1-[2-(3-Fluoro-6-methoxy-1,5-naphthyridin-4-yl)ethyl]-2-oxabicyclo[2.2.2]oct-4-yl}(methyl)amino]methyl}-2H-pyrido[3,2-b][1,4]oxazin-3(4H)-one], the MIC amounted to 0.125 µg/mL (≈ 0.246 µM). Regarding `COc1ccc2ncc(F)c(CCC34CCC(NCc5cc6c(nn5)OCC(=O)N6)(CC3)CO4)c2n1` [Example 177, 3-[({1-[2-(3-Fluoro-6-methoxy-1,5-naphthyridin-4-yl)ethyl]-2-oxabicyclo[2.2.2]oct-4-yl}amino)methyl]-5H-pyridazino [3,4-b][1,4]oxazin-6(7H)-one], the MIC stood at 1 µg/mL (≈ 2.02 µM).

As to `COc1ccc2ncc(F)c(CCC34CCC(NCc5ccc6ncc(=O)[nH]c6n5)(CC3)CO4)c2n1` [Example 178, 6-[({1-[2-(3-Fluoro-6-methoxy-1,5-naphthyridin-4-yl)ethyl]-2-oxabicyclo[2.2.2]oct-4-yl}amino)methyl]pyrido[2,3-b]pyrazin-3(4H)-one], the MIC is 0.063 µg/mL (≈ 0.128 µM).

Take `COc1ccc2ncc(F)c(CCC34CCC(NCc5cc6[nH]c(=O)cnc6cn5)(CC3)CO4)c2n1` [Example 179, 7-[({1-[2-(3-Fluoro-6-methoxy-1,5-naphthyridin-4-yl)ethyl]-2-oxabicyclo[2.2.2]oct-4-yl}amino)methyl]pyrido[3,4-b]pyrazin-2(1H)-one]: the MIC is 0.5 µg/mL (≈ 1.02 µM). As for `N#Cc1ccc2ccc(=O)n(CCC34CCC(NCc5ccc6c(n5)NC(=O)CO6)(CC3)CO4)c2c1` [Example 180, 2-Oxo-1-[2-(4-{[(3-oxo-3,4-dihydro-2H-pyrido[3,2-b][1,4]oxazin-6-yl)methyl]amino}-2-oxabicyclo[2.2.2]oct-1-yl)ethyl]-1,2-dihydroquinoline-7-carbonitrile], the MIC worked out at 0.031 µg/mL (≈ 0.0638 µM).

As to `CC(O)CCOc1ccc2ncc(F)c(CCC34CCC(NCc5ccc6c(n5)NC(=O)CO6)(CC3)CO4)c2n1` (centres unmarked) [Example 181, 6-{[(1-{2-[3-Fluoro-6-(3-hydroxybutoxy)-1,5-naphthyridin-4-yl]ethyl}-2-oxabicyclo[2.2.2]oct-4-yl)amino]methyl}-2H-pyrido[3,2-b][1,4]oxazin-3(4H)-one], the MIC amounted to 0.125 µg/mL (≈ 0.227 µM). With `COc1ccc2ncc(F)c(CC(O)C34CCC(NCc5cc6[nH]c(=O)cnc6cn5)(CC3)CO4)c2n1` (centres unmarked) [Example 182, 7-[({1-[2-(3-Fluoro-6-methoxy-1,5-naphthyridin-4-yl)-1-hydroxyethyl]-2-oxabicyclo[2.2.2]oct-4-yl}amino)methyl]pyrido[3,4-b]pyrazin-2(1H)-one], the MIC worked out at 4 µg/mL (≈ 7.9 µM). Turning to `COc1ccc2ncc(F)c(CCC34CCC(NCc5cc6cccnc6n(C)c5=O)(CC3)CO4)c2n1.Cl` [Example 183, 3-((1-(2-(3-Fluoro-6-methoxy-1,5-naphthyridin-4-yl)ethyl)-2-oxabicyclo[2.2.2]octan-4-ylamino)methyl)-1-methyl-1,8-naphthyridin-2(1H)-one Hydrochloride], the MIC amounted to 1 µg/mL.

For `N[C@@H]1CO[C@@H]1COc1ccc2ncc(F)c(CCC34CCC(NCc5ccc6c(n5)NC(=O)CO6)(CC3)CO4)c2n1` [Example 184, 6-((1-(2-(6-(((2S,3R)-3-Aminooxetan-2-yl)methoxy)-3-fluoro-1,5-naphthyridin-4-yl)ethyl)-2-oxabicyclo[2.2.2]octan-4-ylamino)methyl)-2H-pyrido[3,2-b][1,4]oxazin-3(4H)-one], the MIC was determined as 0.25 µg/mL (≈ 0.443 µM). Regarding `N[C@@H]1CO[C@H]1COc1ccc2ncc(F)c(CCC34CCC(NCc5ccc6c(n5)NC(=O)CO6)(CC3)CO4)c2n1` [Example 185, 6-((1-(2-(6-(((2R,3R)-3-Aminooxetan-2-yl)methoxy)-3-fluoro-1,5-naphthyridin-4-yl)ethyl)-2-oxabicyclo[2.2.2]octan-4-ylamino)methyl)-2H-pyrido[3,2-b][1,4]oxazin-3(4H)-one], the MIC stood at 0.125 µg/mL (≈ 0.221 µM). On to `C=CCOc1ccc2ncc(F)c(CCC34CCC(NCc5ccc6c(n5)NC(=O)CO6)(CC3)CO4)c2n1` [Example 186, 6-{[(1-{2-[3-Fluoro-6-(prop-2-en-1-yloxy)-1,5-naphthyridin-4-yl]ethyl}-2-oxabicyclo[2.2.2]oct-4-yl)amino]methyl}-2H-pyrido[3,2-b][1,4]oxazin-3(4H)-one], for which the MIC was 0.063 µg/mL (≈ 0.121 µM). With `COc1ccc2ncc(F)c(CCC34CCC(NC/C=C/c5cc(F)ccc5F)(CC3)CO4)c2n1` [Example 188, (E)-N-(3-(2,5-Difluorophenyl)allyl)-1-(2-(3-fluoro-6-methoxy-1,5-naphthyridin-4-yl)ethyl)-2-oxabicyclo[2.2.2]octan-4-amine] the figure was 0.016 µg/mL (≈ 0.0331 µM); with `COc1cc(F)c2ncc(F)c(CCC34CCC(NCc5ccc6c(n5)NC(=O)CO6)(CC3)CO4)c2c1.Cl` [Example 189, 6-((1-(2-(3,8-Difluoro-6-methoxyquinolin-4-yl)ethyl)-2-oxabicyclo[2.2.2]octan-4-ylamino)methyl)-2H-pyrido[3,2-b][1,4]oxazin-3(4H)-one Hydrochloride], 0.016 µg/mL; with `COc1ccc2ncc(F)c(CC(C)(O)C34CCC(NCc5ccc6c(n5)NC(=O)CO6)(CC3)CO4)c2n1.Cl` (centres unmarked) [Example 190, 6-((1-(1-(3-Fluoro-6-methoxy-1,5-naphthyridin-4-yl)-2-hydroxypropan-2-yl)-2-oxabicyclo[2.2.2]octan-4-ylamino)methyl)-2H-pyrido[3,2-b][1,4]oxazin-3(4H)-one Hydrochloride], 0.063 µg/mL. For `COc1cc(C)c2ncc(F)c(CCC34CCC(NCc5ccc6c(n5)NC(=O)CO6)(CC3)CO4)c2n1.Cl` [Example 191, 6-((1-(2-(3-Fluoro-6-methoxy-8-methyl-1,5-naphthyridin-4-yl)ethyl)-2-oxabicyclo[2.2.2]octan-4-ylamino)methyl)-2H-pyrido[3,2-b][1,4]oxazin-3(4H)-one Hydrochloride] the value was 0.016 µg/mL; for `CNC(=O)COc1ccc2ncc(F)c(CCC34CCC(NC/C=C/c5cc(F)ccc5F)(CC3)CO4)c2n1` [Example 192, (E)-2-(8-(2-(4-(3-(2,5-Difluorophenyl)allylamino)-2-oxabicyclo[2.2.2]octan-1-yl)ethyl)-7-fluoro-1,5-naphthyridin-2-yloxy)-N-methylacetamide], 0.031 µg/mL (≈ 0.0573 µM); for `COc1ccc2ncc(F)c(CCC34CCC(NC/C=C/c5ccccn5)(CC3)CO4)c2n1` [Example 193, (E)-1-(2-(3-Fluoro-6-methoxy-1,5-naphthyridin-4-yl)ethyl)-N-(3-(pyridin-2-yl)allyl)-2-oxabicyclo[2.2.2]octan-4-amine], 0.031 µg/mL (≈ 0.0691 µM). Regarding `COc1ccc2ncc(F)c(C(CO)CC34CCC(NCc5ccc6c(n5)NC(=O)CO6)(CC3)CO4)c2n1.Cl` (centres unmarked) [Example 194, 1-(2-(3-Fluoro-6-methoxy-1,5-naphthyridin-4-yl)-3-hydroxypropyl)-N-((3-oxo-3,4-dihydro-2H-pyrido[3,2-b][1,4]oxazin-6-yl)methyl)-2-oxabicyclo[2.2.2]octan-4-aminium chloride], the MIC is 1 µg/mL. Turning to `COc1ccc2ncc(F)c(C(CC34CCC(NCc5ccc6c(n5)NC(=O)CO6)(CC3)CO4)C(=O)[O-])c2n1.[Na+]` (centres unmarked) [Example 195, Sodium 2-(3-fluoro-6-methoxy-1,5-naphthyridin-4-yl)-3-(4-(((3-oxo-3,4-dihydro-2H-pyrido[3,2-b][1,4]oxazin-6-yl)methyl)amino)-2-oxabicyclo[2.2.2]octan-1-yl)propanoate], the MIC was found to be 1 µg/mL. Consider `COc1ccc2ncc(F)c(CCC34CCC(NC(=O)c5nc6c(cc5Cl)SCC(=O)N6)(CC3)CC4)c2n1` [Example 196, 7-Chloro-N-(4-(2-(3-fluoro-6-methoxy-1,5-naphthyridin-4-yl)ethyl)bicyclo[2.2.2]octan-1-yl)-3-oxo-3,4-dihydro-2H-pyrido[3,2-b][1,4]thiazine-6-carboxamide], for which the MIC is 0.25 µg/mL (≈ 0.45 µM). As to `COc1ccc2ncc(F)c(CCC34CCC(NCc5nc6c(c(C)c5F)OCC(=O)N6)(CC3)CO4)c2n1.Cl` [Example 197, 1-(2-(3-Fluoro-6-methoxy-1,5-naphthyridin-4-yl)ethyl)-N-((7-fluoro-8-methyl-3-oxo-3,4-dihydro-2H-pyrido[3,2-b][1,4]oxazin-6-yl)methyl)-2-oxabicyclo[2.2.2]octan-4-aminium chloride], the MIC stood at 0.5 µg/mL.
